# Test results as given in US20230285374A1, “THERAPEUTIC METHODS USING VADADUSTAT” (Akebia Therapeutics, Inc., priority 2019, published 2023).
# Test system: subjects with anemia and Non-Dialysis-Dependent Chronic Kidney Disease (NDD-CKD)
# Experiment: Phase 3 open-label, active-controlled NDD-CKD Conversion/Correction Study (J01), Compound 1 vs darbepoetin alfa, 52 weeks
# Type: in vivo, human
# Text: This example describes the first open-label, active-controlled Phase 3 study of Compound 1 (Vadadustat or VDT or MT-6548) for treatment of anemia in subjects with Non-Dialysis-Dependent Chronic Kidney Disease (NDD-CKD) for up to 52 weeks. Efficacy and safety of Compound 1 was compared with darbepoetin alfa (DA) for the treatment of anemia in subjects with NDD-CKD. A subset of the subjects were switching to treatment with Compound 1 from an ESA therapy. […] These findings support the use of vadadustat as a durable, effective therapy for anemia in patients with NDD-CKD.
# The study population consisted of subjects 20 years of age with NDD-CKD, estimated glomerular filtration rate (eGFR)<60 mL/min/1.73 m^2, and hemoglobin (Hb) values greater than or equal to 8.0 g/dL and less than 11.0 g/dL (correction group) or greater than or equal to 9.0 g/dL and less than 12.5 g/dL (conversion group), who were currently treated with an erythropoiesis stimulating agent (ESA) for anemia.
# Following randomization, patients were treated for a period of up to 52 weeks. Patients were then observed post treatment for a period of two (2) weeks (“follow up” period).
# In order to be eligible for this study, patients were required to meet all of the following inclusion criteria: • Be at least 20 years of age, inclusive; • Have diagnosis of Chronic Kidney Disease with an estimated glomerular filtration rate (eGFR)<60 mL/minute/1.73 m^2 [eGFR (mL/min/1.73 m^2)=194×(serum creatinine)^−1.094×(age)^−0.287(females: ×0.739)] at screening; • Not have received dialysis within 8 weeks prior to the screening period nor expect to start dialysis during the treatment period; • ESA Treatment • Correction group: not receiving ESA for at least eight (8) weeks just before screening; • Conversion group: receiving the same formulation of ESA using the same administration route and the same dose interval (the dose interval should be the one described in the package insert for the ESA formulation) for at least 8 weeks just before screening using the dosages described below: Epoetin alfa and epoetin beta: ≥12,000 IU every 2 weeks Darbepoetin alfa: ≥120 μg every 2 weeks Epoetin beta pegol: ≥250 μg every 4 weeks • Baseline Hb: Correction group: ≥8.0 to <11.0 g/dL Conversion group: ≥9.0 to ≤12.0 g/dL • Have a difference of <1.5 g/dL in Hb for the latest two tests in the screening period; • Have serum ferritin values of ≥100 ng/mL or transferrin saturation of ≥20% during the screening period; and • Have folic acid and vitamin B12 values above standard minimum values during the screening period.
# Subjects deemed ineligible for into the study included those who: • Have anemia due to a cause other than CKD; • Have active bleeding or blood loss during the eight (8) weeks just before screening; • Have received a red blood cell transfusion during the eight (8) weeks just before screening; • Have uncontrolled hypertension; • Have active ocular fundus disease or cannot undergo an ocular fundus examination; • Have been diagnosed with cardiovascular disease, malignancy, or hemisiderosis; • Have a history of adverse drug reactions or a drug allergy; and • Have previously received Compound 1.
# • Average Hb level at weeks 20 and 24 of the treatment period.
# • Hb level at each treatment visit; and • The proportion of patients within the target Hb range (11.0-13.0 g/dL).
# Safety endpoints for this study were defined as follows: • Adverse events (AEs); • Adverse drug reactions; and
# Other endpoints for this study were defined as follows: • Iron-related parameters: serum ferritin, transferrin saturation (TSAT), total iron-binding capacity (TIBC), hepcidin, serum iron, and monthly dose of iron by any route of administration (oral and intravenous); and • Red blood cell indices. […]
# [1] = 52 weeks LOCF compared with baseline
structure (smiles),measurement,setting,value
"O=C(O)CNC(=O)c1ncc(-c2cccc(Cl)c2)cc1O [Compound 1, Vadadustat]",Deaths due to AEs,52 weeks,0 (0.0) n (%)
same,"MCH, change",[1],significantly increased
same,"MCHC, change",[1],significantly increased
same,"MCV, change",[1],significantly increased
same,"RDW, change",[1],no significant differences
same,"TIBC, change",[1],significant increase
same,"TSAT, change",[1],no significant difference
same,"hepcidin, change",[1],significant decreases
same,"serum ferritin, change",[1],significant decreases
same,week at which mean Hb reached the target range (11.0-13.0 g/dL),ESA non-users,8 week
same,proportion of patients with Hb levels within the target range,"ESA non-users, Week 52",71.4%
same,proportion of patients with Hb levels within the target range,"ESA non-users, baseline",15.5%
same,week at which mean Hb reached the target range (11.0-13.0 g/dL),ESA users,8 week
same,proportion of patients with Hb levels within the target range,"ESA users, Hb<11.0 g/dl subgroup, Week 52",78.3%
same,proportion of patients with Hb levels within the target range,"ESA users, Hb<11.0 g/dl subgroup, baseline",4.7%
same,proportion of patients with Hb levels within the target range,"ESA users, Hb≥11.0 g/dl subgroup, Week 52",80.0%
same,proportion of patients with Hb levels within the target range,"ESA users, Hb≥11.0 g/dl subgroup, baseline",91.9%
same,proportion of patients with Hb levels within the target range,"ESA users, Week 52",79.2%
same,proportion of patients with Hb levels within the target range,"ESA users, baseline",45.0%
same,Hb levels during the treatment period,"ESA users, screening Hb ≥11.0 g/dl subgroup",maintained within the target range throughout the treatment period
same,time at which mean Hb reached the target range,"ESA users, screening Hb<11.0 g/dl subgroup",12 weeks
same,proportion of patients within the target Hb range,"conversion group, week 24",66.7%
same,average Hb at baseline,conversion patients,10.68 g/dL
same,average Hb at week 24,conversion patients,11.27 g/dL
same,average Hb at baseline,correction patients,10.17 g/dL
same,average Hb at week 24,correction patients,11.85 g/dL
same,proportion of patients within the target Hb range of 11.0-13.0 g/dL,"correction patients, week 24",69.7%
same,Adverse drug reaction,"human, in vivo, 52 weeks",20 (13.2) n (%)
same,Cardiac failure (AE of special interest),"human, in vivo, 52 weeks",6 (4.0) n (%)
same,Cardiovascular event (AE of special interest),"human, in vivo, 52 weeks",3 (2.0) n (%)
same,Constipation,"human, in vivo, 52 weeks",14 (9.3) n (%)
same,Diarrhea,"human, in vivo, 52 weeks",18 (11.9) n (%)
same,Discontinuation due to AEs,"human, in vivo, 52 weeks",10 (6.6) n (%)
same,Dose reduction or interruption of study drug due to AEs,"human, in vivo, 52 weeks",11 (7.3) n (%)
same,Hyperkalemia (AE of special interest),"human, in vivo, 52 weeks",1 (0.7) n (%)
same,Malignancy (AE of special interest),"human, in vivo, 52 weeks",2 (1.3) n (%)
same,Nasopharyngitis,"human, in vivo, 52 weeks",37 (24.5) n (%)
same,Pulmonary hypertension (AE of special interest),"human, in vivo, 52 weeks",0 (0.0) n (%)
same,Retinal disorder (AE of special interest),"human, in vivo, 52 weeks",4 (2.6) n (%)
same,Serious AEs,"human, in vivo, 52 weeks",42 (27.8) n (%)
same,Serious adverse drug reaction,"human, in vivo, 52 weeks",0 (0.0) n (%)
same,Subjects with ≥ 1 AE,"human, in vivo, 52 weeks",136 (90.1) n (%)
same,constipation,"human, in vivo, 52 weeks",9.3%
same,diarrhea,"human, in vivo, 52 weeks",11.9%
same,"incidence of adverse events (AEs), at least one AE","human, in vivo, 52 weeks",90.1%
same,incidence of serious adverse events (SAEs),"human, in vivo, 52 weeks",27.8%
same,nasopharyngitis,"human, in vivo, 52 weeks",24.5%
same,mean Hb level at week 52,overall population,11.51 g/dL
same,week at which mean Hb reached the target range (11.0-13.0 g/dL),overall population,8 week
same,LSMean of the average Hb at weeks 20 and 24,"overall population, MMRM",11.66 g/dL
same,Difference (Compound 1-Darbepoetin alfa) in LSMean of the average Hb at weeks 20 and 24,"overall population, noninferiority margin −0.75 g/dL",-0.26 g/dL
